Measured values: ChEMBL document CHEMBL1148524, “Novel and selective alpha(v)beta3 receptor peptide antagonist: design, synthesis, and biological behavior” (J Med Chem, 2006)

Biological target: Integrin alpha-V/beta-3 (Homo sapiens, UniProt P05106+P06756)
Assay: Inhibition of adhesion of K562 cells expressing alphaVbeta3 integrin receptor to vitronectin
Type: cell-based

Integrin alpha-V/beta-3, sequence (P05106 27-788 limits assumed): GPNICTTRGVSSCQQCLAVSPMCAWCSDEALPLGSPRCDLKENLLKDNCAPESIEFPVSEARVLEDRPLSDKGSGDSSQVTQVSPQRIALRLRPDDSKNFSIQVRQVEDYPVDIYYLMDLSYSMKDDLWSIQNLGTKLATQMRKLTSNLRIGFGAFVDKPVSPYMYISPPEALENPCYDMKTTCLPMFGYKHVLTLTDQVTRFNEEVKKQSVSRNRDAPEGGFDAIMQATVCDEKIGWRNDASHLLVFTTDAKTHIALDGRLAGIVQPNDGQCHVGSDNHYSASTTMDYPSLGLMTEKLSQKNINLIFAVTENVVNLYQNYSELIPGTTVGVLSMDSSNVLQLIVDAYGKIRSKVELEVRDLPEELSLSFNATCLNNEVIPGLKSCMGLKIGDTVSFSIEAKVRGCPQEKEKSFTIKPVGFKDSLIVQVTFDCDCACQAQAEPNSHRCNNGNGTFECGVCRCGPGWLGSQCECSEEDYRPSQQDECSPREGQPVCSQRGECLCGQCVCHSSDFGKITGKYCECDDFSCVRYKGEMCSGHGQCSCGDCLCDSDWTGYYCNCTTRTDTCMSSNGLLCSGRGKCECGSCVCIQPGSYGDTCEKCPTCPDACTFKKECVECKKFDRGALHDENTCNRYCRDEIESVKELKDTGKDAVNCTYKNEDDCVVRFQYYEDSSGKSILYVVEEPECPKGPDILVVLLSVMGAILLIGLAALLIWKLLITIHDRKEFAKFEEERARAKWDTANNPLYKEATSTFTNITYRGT
Integrin alpha-V/beta-3, sequence (P06756 31-889 limits assumed): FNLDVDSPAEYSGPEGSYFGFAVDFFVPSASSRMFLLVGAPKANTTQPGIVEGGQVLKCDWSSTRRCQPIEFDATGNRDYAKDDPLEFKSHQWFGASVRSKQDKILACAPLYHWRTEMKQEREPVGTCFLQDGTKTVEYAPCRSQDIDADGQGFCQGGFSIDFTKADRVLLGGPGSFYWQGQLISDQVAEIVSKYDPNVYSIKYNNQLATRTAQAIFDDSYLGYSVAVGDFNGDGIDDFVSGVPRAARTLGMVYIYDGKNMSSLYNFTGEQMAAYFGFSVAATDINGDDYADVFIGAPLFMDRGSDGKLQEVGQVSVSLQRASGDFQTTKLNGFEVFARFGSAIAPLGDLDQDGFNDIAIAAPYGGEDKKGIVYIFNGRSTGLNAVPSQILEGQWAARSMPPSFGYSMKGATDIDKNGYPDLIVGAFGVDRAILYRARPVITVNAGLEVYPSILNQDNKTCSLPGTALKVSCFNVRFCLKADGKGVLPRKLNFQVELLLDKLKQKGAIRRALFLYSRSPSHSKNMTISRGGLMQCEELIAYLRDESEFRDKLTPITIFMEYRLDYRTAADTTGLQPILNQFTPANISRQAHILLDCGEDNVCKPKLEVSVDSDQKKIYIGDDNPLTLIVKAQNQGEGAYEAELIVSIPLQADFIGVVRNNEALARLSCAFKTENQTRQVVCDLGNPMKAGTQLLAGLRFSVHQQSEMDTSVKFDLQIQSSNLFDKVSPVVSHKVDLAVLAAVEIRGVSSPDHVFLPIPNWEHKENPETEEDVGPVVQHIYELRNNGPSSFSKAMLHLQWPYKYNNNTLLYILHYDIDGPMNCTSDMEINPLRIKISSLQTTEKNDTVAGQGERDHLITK
Integrin alpha-V/beta-3, sequence (P06756 891-1048 limits assumed): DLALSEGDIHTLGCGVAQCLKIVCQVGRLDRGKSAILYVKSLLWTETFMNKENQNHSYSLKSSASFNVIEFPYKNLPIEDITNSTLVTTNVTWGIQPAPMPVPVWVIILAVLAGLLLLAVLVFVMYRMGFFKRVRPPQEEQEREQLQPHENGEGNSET

CSCC[C@H](NC(=O)CC[C@H]1NC(=O)[C@H](CC(=O)O)NC(=O)CNC(=O)[C@H](CCCN=C(N)N)NC(=O)[C@H](CCCCN)NC1=O)C(=O)N[C@@H](CC(=O)O)C(=O)N[C@@H](CC(=O)O)C(=O)N1CCC[C@H]1C(=O)NCC(=O)/N=C(\N)NCCC[C@H](N)C(=O)N[C@@H](CC(N)=O)C(=O)N1CCC[C@H]1C(=O)N[C@@H](Cc1c[nH]cn1)C(=O)N[C@@H](CCCCN)C(=O)NCC(=O)N1CCC[C@H]1C(=O)N[C@@H](C)C(=O)N[C@H](C(=O)O)[C@@H](C)O
IC50: 0.88 µM
